In patent publication US10898481B2 (priority 2018, dated 2021):

Assays:
[1] = biological target: hA2a/CHO (Homo sapiens (Human), UniProt P29274); test: cAMP inhibition assay in hA2a/CHO cells, 10 μM adenosine; assay type: cell-based; conditions: read-out: cAMP & FLIPR IC50 (nM) hA2a;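 further: compounds added to cells 30 min ahead of adenosine, then a further 30 min at 37 °C with adenosine before cAMP detection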
Procedure: (§1) hA2a/CHO, hA2b/CHO, hA3/CHO and mA2a/CHO (Genscript) were plated at 5×10^3 cells/well into 384-well polystyrene plates at the day of experiment. Compounds were pre-incubated with cells for 30 min at 37° C., 5% CO2. Then 10 μM adenosine was added to the cells and incubated for 30 min at 37° C., 5% CO2. Detection reagent (CISBIO) was added and the plates were incubated for 60 min at room temperature. The signal was captured by Envision.

[2] = biological target: hA2b/CHO (Homo sapiens (Human), UniProt P29275); test: cAMP inhibition assay in hA2b/CHO cells, 10 μM adenosine; assay type: cell-based; conditions: read-out: cAMP & FLIPR IC50 (nM) hA2b;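 further: cells exposed to compound 30 min at 37 °C, then stimulated with adenosine a further 30 min, cAMP read after 60 min at room temperature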
Procedure: as §1

[3] = biological target: mA2a/CHO (Mus musculus (Mouse), UniProt Q60613); test: cAMP inhibition assay in mA2a/CHO cells, 10 μM adenosine; assay type: cell-based; conditions: read-out: cAMP & FLIPR IC50 (nM) mA2a;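 further: compounds preincubated 30 min at 37 °C before the adenosine challenge, then 30 min further stimulation, readout after 60 min detection reagent incubation at room temperature in 384-well plates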
Procedure: as §1

[4] = biological target: hADORA1/CHO (hA1 expressing) cells (Homo sapiens (Human), UniProt P30542); test: cell-based; conditions: FLIPR inhibition, 10 μM adenosine, read-out: cAMP & FLIPR IC50 (nM) hA1
Sequence of hADORA1/CHO (hA1 expressing) cells (P30542 whole entry): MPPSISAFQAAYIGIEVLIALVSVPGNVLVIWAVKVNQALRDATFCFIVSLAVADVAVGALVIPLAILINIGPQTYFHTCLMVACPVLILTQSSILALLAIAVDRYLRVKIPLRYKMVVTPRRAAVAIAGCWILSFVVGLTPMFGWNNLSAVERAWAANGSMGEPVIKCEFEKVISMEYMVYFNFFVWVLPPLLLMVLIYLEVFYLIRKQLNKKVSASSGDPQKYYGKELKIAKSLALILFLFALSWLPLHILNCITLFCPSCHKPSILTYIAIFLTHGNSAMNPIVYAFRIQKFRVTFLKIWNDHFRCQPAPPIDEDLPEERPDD

Sequence of mA2a/CHO (Q60613 whole entry): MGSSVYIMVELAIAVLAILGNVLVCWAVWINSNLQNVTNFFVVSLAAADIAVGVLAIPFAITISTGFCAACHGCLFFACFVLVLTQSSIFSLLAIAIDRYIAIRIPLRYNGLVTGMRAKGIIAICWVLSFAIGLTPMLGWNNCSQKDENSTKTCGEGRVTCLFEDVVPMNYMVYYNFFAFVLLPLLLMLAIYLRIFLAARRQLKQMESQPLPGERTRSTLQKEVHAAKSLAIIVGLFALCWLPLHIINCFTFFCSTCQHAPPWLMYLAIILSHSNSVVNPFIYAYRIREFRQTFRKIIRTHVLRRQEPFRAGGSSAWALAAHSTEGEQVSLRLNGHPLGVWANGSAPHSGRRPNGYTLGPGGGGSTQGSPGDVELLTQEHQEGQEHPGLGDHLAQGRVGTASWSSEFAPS
Sequence of hA2a/CHO (P29274 whole entry): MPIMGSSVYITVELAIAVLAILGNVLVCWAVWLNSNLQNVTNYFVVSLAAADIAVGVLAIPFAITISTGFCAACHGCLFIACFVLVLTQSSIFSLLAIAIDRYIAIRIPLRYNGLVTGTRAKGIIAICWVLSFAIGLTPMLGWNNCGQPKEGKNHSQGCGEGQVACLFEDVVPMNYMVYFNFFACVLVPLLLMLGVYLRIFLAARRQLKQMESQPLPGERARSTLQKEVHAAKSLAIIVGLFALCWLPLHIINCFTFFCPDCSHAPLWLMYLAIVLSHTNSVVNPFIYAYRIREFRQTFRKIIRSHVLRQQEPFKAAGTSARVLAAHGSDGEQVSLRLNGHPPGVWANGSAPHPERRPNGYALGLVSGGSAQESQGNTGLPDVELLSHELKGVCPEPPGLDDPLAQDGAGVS
Sequence of hA2b/CHO (P29275 whole entry): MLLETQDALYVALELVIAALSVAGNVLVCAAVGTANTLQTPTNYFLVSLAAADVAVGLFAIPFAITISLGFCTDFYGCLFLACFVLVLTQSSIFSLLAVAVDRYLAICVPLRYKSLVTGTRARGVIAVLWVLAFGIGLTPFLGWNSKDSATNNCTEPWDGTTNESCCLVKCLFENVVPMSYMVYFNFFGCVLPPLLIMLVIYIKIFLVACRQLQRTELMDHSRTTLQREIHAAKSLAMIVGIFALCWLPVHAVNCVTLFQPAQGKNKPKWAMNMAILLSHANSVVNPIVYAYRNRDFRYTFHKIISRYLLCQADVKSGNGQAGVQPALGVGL

| SMILES | IC50 [1] | IC50 [2] | IC50 [3] | IC50 [4] |
| --- | --- | --- | --- | --- |
| Cc1cnc2ccc(-c3nc(C(=O)NCC4CN(C)CCO4)c(N)nc3-c3ncco3)cn12 (racemic) [Example 207, rac-3-amino-6-(3-methylimidazo[1,2-a]pyridin-6-yl)-N-((4-methylmorpholin-2-yl)methyl)-5-(oxazol-2-yl)pyrazine-2-carboxamide] | 12 nM | 774 nM | 44 nM | 5950 nM |
| Cc1cnc2ccc(-c3nc(C(=O)NCC4COCCO4)c(N)nc3-c3ncco3)cn12 (racemic) [Example 211, rac-N-((1,4-dioxan-2-yl)methyl)-3-amino-6-(3-methylimidazo[1,2-a]pyridin-6-yl)-5-(oxazol-2-yl)pyrazine-2-carboxamide] | 3.6 nM | 160 nM | 19 nM | 319 nM |
| Cc1cnc2ccc(-c3nc(C(=O)NCC4CCC(=O)N4C)c(N)nc3-c3ncco3)cn12 (racemic) [Example 212, rac-3-amino-N-((1-methyl-5-oxopyrrolidin-2-yl)methyl)-6-(3-methylimidazo [1,2-a]pyridin-6-yl)-5-(oxazol-2-yl) pyrazine-2-carboxamide] | 34 nM | 3430 nM | 175 nM | > 10000 nM |
| COC(C)CNC(=O)c1nc(-c2ccc3ncc(C)n3c2)c(-c2ncco2)nc1N (racemic) [Example 228, rac-3-amino-N-(2-methoxypropyl)-6-(3-methylimidazo[1,2-a]pyridin-6-yl)-5-(oxazol-2-yl)pyrazine-2-carboxamide] | 2.7 nM | 210 nM | 23 nM | 2020 nM |
| Cc1cnc2ccc(-c3nc(C(=O)NCC4CCCCN4C)c(N)nc3-c3ncco3)cn12 (single isomer, unassigned; isomer 2) [Example 125, 3-amino-6-(3-methylimidazo[1,2-a]pyridin-6-yl)-N-((1-methylpiperidin-2-yl)methyl)-5-(oxazol-2-yl)pyrazine-2-carboxamide (isomer 2)] | 1440 nM | ≥ 10000 nM | ≥ 10000 nM | – |
| Cc1cc(-c2nc(C(=O)NCc3ncccc3F)c(N)nc2-c2ccc(F)cc2)cc(C)n1 [Example 1, 3-amino-6-(2,6-dimethylpyridin-4-yl)-5-(4-fluorophenyl)-N-((3-fluoropyridin-2-yl)methyl)pyrazine-2-carboxamide] | 151 nM | ≥ 10000 nM | 1060 nM | – |
| Cc1cc(-c2nc(C(=O)NCc3ccccc3C(F)(F)F)c(N)nc2-c2ccc(F)cc2)cc(C)n1 [Example 53, 3-amino-6-(2,6-dimethylpyridin-4-yl)-5-(4-fluorophenyl)-N-(2-(trifluoromethyl)benzyl)pyrazine-2-carboxamide] | 60 nM | ≥ 10000 nM | 529 nM | – |
| Cc1ccn(-c2nc(N)c(C(=O)Nc3ccccc3OC(F)F)nc2-c2ccc(=O)n(C)c2)n1 [Example 59, 3-amino-N-(2-(difluoromethoxy)phenyl)-5-(3-methyl-1H-pyrazol-1-yl)-6-(1-methyl-6-oxo-1,6-dihydropyridin-3-yl)pyrazine-2-carboxamide] | 29 nM | ≥ 10000 nM | 66 nM | – |
| Cc1cc(-c2nc(C(=O)Nc3ccccc3OC(F)F)c(N)nc2-n2ccc(C)n2)cc(N)n1 [Example 60, 3-amino-6-(2-amino-6-methylpyridin-4-yl)-N-(2-(difluoromethoxy)phenyl)-5-(3-methyl-1H-pyrazol-1-yl)pyrazine-2-carboxamide] | 24 nM | ≥ 10000 nM | 150 nM | – |
| Cc1cc(-c2nc(C(=O)NCc3c(F)cccc3F)c(N)nc2-c2ccc(C)o2)cc(C)n1 [Example 62, 3-amino-N-(2,6-difluorobenzyl)-6-(2,6-dimethylpyridin-4-yl)-5-(5-methylfuran-2-yl)pyrazine-2-carboxamide] | 1.8 nM | ≥ 10000 nM | 28 nM | – |
| COc1ccccc1CNC(=O)c1nc(-c2cc(C)nc(C)c2)c(-c2cnn(C)c2)nc1N [Example 63, 3-amino-6-(2,6-dimethylpyridin-4-yl)-N-(2-methoxybenzyl)-5-(1-methyl-1H-pyrazol-4-yl)pyrazine-2-carboxamide] | 33 nM | ≥ 10000 nM | 601 nM | – |
| Cc1cc(-c2nc(C(=O)NCc3c(F)cccc3F)c(N)nc2-c2cnn(C)c2)cc(C)n1 [Example 64, 3-amino-N-(2,6-difluorobenzyl)-6-(2,6-dimethylpyridin-4-yl)-5-(1-methyl-1H-pyrazol-4-yl)pyrazine-2-carboxamide] | 52 nM | ≥ 10000 nM | ≥ 10000 nM | – |
| COc1ncccc1CNC(=O)c1nc(-c2cc(C)nc(C)c2)c(-c2ccc(F)cc2)nc1N [Example 66, 3-amino-6-(2,6-dimethylpyridin-4-yl)-5-(4-fluorophenyl)-N-((2-methoxypyridin-3-yl)methyl)pyrazine-2-carboxamide] | 107 nM | ≥ 10000 nM | 730 nM | – |
| COc1ccccc1CNC(=O)c1nc(-c2ccc(=O)n(C)c2)c(-c2ccc(F)cc2)nc1N [Example 67, 3-amino-5-(4-fluorophenyl)-N-(2-methoxybenzyl)-6-(1-methyl-6-oxo-1,6-dihydropyridin-3-yl)pyrazine-2-carboxamide] | 6.4 nM | 67 nM | 25 nM | – |
| COc1ccccc1CNC(=O)c1nc(-c2cc(C)nc(Cl)c2)c(-c2ccc(F)cc2)nc1N [Example 68, 3-amino-6-(2-chloro-6-methylpyridin-4-yl)-5-(4-fluorophenyl)-N-(2-methoxy-benzyl)pyrazine-2-carboxamide] | 7.5 nM | 952 nM | 64 nM | – |
| CCn1cc(-c2nc(C(=O)NCc3ccccc3OC)c(N)nc2-c2ccc(F)cc2)ccc1=O [Example 69, 3-amino-6-(1-ethyl-6-oxo-1,6-dihydro-pyridin-3-yl)-5-(4-fluorophenyl)-N-(2-methoxybenzyl)pyrazine-2-carboxamide] | 15 nM | 213 nM | 20 nM | – |
| COc1ccccc1CNC(=O)c1nc(-c2ccc(=O)n(C(C)C)c2)c(-c2ccc(F)cc2)nc1N [Example 70, 3-amino-5-(4-fluorophenyl)-6-(1-isopropyl-6-oxo-1,6-dihydropyridin-3-yl)-N-(2-methoxybenzyl)pyrazine-2-carboxamide] | 10 nM | ≥ 10000 nM | 5.2 nM | – |
| Nc1nc(-c2ccc(F)cc2)c(-c2ccc(=O)n(C3COC3)c2)nc1C(=O)NCc1c(F)cccc1F [Example 77] | 17 nM | 358 nM | 26 nM | – |
| COc1ccccc1CNC(=O)c1nc(-c2cc(C)c(=O)n(C)c2)c(-c2ccc(F)cc2)nc1N [Example 82, 3-amino-6-(1,5-dimethyl-6-oxo-1,6-dihydropyridin-3-yl)-5-(4-fluorophenyl)-N-(2-methoxybenzyl)pyrazine-2-carboxamide] | 19 nM | 276 nM | 59 nM | – |
| COc1ccccc1CNC(=O)c1nc(-c2cc(C)nc(C)c2)c(-c2ccc(F)cc2)nc1N [Example 89, 3-amino-6-(2,6-dimethylpyridin-4-yl)-5-(4-fluorophenyl)-N-(2-methoxybenzyl)pyrazine-2-carboxamide] | 17 nM | 5620 nM | 297 nM | – |
| COc1cccc(F)c1CNC(=O)c1nc(-c2cc(C)nc(C)c2)c(-c2ccc(F)cc2)nc1N [Example 90, 3-amino-6-(2,6-dimethylpyridin-4-yl)-N-(2-fluoro-6-methoxybenzyl)-5-(4-fluorophenyl)pyrazine-2-carboxamide] | 4 nM | 781 nM | 95 nM | – |
| Cc1cc(-c2nc(C(=O)NCc3ccccc3OC(F)F)c(N)nc2-c2ccc(F)cc2)cc(C)n1 [Example 91, 3-amino-N-(2-(difluoromethoxy)benzyl)-6-(2,6-dimethylpyridin-4-yl)-5-(4-fluorophenyl)pyrazine-2-carboxamide] | 8.9 nM | 1420 nM | 72 nM | – |
| COc1ccc(F)cc1CNC(=O)c1nc(-c2cc(C)nc(C)c2)c(-c2ccc(F)cc2)nc1N [Example 92, 3-amino-6-(2,6-dimethylpyridin-4-yl)-N-(5-fluoro-2-methoxybenzyl)-5-(4-fluorophenyl)pyrazine-2-carboxamide] | 41 nM | ≥ 10000 nM | 216 nM | – |
| COc1ccccc1CNC(=O)c1nc(-c2cc(C)nc(C)c2)c(-c2ccccc2)nc1N [Example 93, 3-amino-6-(2,6-dimethylpyridin-4-yl)-N-(2-methoxybenzyl)-5-phenylpyrazine-2-carboxamide] | 8 nM | 354 nM | 127 nM | – |
| Cc1cnc2ccc(-c3nc(C(=O)NC[C@H]4CCCN4C)c(N)nc3-c3ccc(F)cc3)cn12 [Example 138, 3-amino-5-(4-fluorophenyl)-6-[3-methylimidazo[1,2-a]pyridin-6-yl]-N-[[(2R)-1-methylpyrrolidin-2-yl]methyl]pyrazine-2-carboxamide] | – | 959 nM | 70 nM | – |
| Cc1cnc2ccc(-c3nc(C(=O)NC[C@@H]4CCCN4C)c(N)nc3-c3ccc(F)cc3)cn12 [Example 139, (S)-3-amino-5-(4-fluorophenyl)-6-(3-methylimidazo[1,2-a]pyridin-6-yl)-N-((1-methylpyrrolidin-2-yl)methyl) pyrazine-2-carboxamide] | – | 932 nM | 66 nM | – |
| Cc1cnc2ccc(-c3nc(CNC(=O)[C@H]4CCCN4C)c(N)nc3-c3ccc(F)cc3)cn12 [Example 157, (2R)—N-[[3-amino-5-(4-fluorophenyl)-6-[3-methylimidazo[1,2-a]pyridin-6-yl]pyrazin-2-yl]methyl]-1-methylpyrrolidine-2-carboxamide] | 0.3 nM | 59 nM | 2.9 nM | – |
